# Measured values published in patent US5622951A, “Piperazine derivatives as 5-HT antagonists” (John Wyeth & Brother Ltd., priority 1993, dated 1997).
# Columns and labels:
# 5-HT1A receptor [1] = biological target: T1, 5-HT1A receptor (Rattus norvegicus, UniProt P19327); assay: 5-HT1A receptor binding in rat hippocampal membrane homogenate (Alexander and Wood)
# T1 construct: rat hippocampal membrane homogenate; from tissue; host or cells: rat hippocampus, membrane homogenate
# T1 sequence (P19327 1-422): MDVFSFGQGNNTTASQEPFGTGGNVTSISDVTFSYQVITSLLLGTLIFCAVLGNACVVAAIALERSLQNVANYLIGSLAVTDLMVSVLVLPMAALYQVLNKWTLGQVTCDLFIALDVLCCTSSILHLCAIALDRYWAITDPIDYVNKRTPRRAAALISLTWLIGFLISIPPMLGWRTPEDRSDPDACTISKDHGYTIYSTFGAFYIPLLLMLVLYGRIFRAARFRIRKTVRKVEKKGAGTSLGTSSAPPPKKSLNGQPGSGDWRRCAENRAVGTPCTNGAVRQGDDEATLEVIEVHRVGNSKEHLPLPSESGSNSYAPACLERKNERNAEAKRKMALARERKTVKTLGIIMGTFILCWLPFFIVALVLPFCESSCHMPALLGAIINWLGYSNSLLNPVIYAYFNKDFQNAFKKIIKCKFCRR
# Description: The compounds of the invention were tested for 5-HT1A receptor binding activity in rat hippocampal membrane homogenate by the method of B S Alexander and M D Wood, J Pharm Pharmacol, 1988, 40, 888-891.
# 5-HT1A receptor [2] = biological target: T2, 5-HT1A receptor (Cavia porcellus, UniProt A0A286Y074); assay: 5-HT1A receptor antagonism: antagonism of 5-carboxamidotryptamine in the guinea-pig ileum in vitro (Fozard et al); settings: read-out: pA2, 5-HT1A receptor antagonism (converted)
# T2 construct: in the guinea-pig ileum in vitro; from tissue; host or cells: guinea-pig ileum, isolated
# T2 sequence (A0A286Y074 1-421): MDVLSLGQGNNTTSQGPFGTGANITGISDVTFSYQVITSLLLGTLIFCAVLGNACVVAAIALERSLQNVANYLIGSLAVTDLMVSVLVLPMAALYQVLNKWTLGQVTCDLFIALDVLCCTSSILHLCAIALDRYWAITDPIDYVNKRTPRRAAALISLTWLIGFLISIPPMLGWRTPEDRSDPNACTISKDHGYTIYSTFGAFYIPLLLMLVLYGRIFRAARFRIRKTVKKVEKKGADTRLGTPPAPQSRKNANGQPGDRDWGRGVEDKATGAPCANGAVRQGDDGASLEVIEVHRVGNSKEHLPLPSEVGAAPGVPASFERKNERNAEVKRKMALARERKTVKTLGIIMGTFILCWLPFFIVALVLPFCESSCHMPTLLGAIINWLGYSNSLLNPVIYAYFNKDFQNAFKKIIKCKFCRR
# Description: The compounds are tested for 5-HT1A receptor antagonism activity in a test involving the antagonism of 5-carboxamidotryptamine in the guinea-pig ileum in vitro (based upon the procedure of Fozard et at, Br J Pharmac, 1985, 86, 601P).
Compound,IC50 (5-HT1A receptor [1]),Kb (5-HT1A receptor [2])
"COc1ccccc1N1CCN([C@H]2CC[C@H](c3ncc(C)cc3C)CC2)CC1 [Example 20, Trans-1-(2-Methoxyphenyl)-4-[1-(3,5-dimethylpyridin-2-yl)-cyclohex-4-yl]piperazine]",1.6 nM,
"COc1ccccc1N1CCN(C2CC=C(c3ncc(C)cc3C)CC2)CC1 (stereo not shown) [Example 19, 1-(2-Methoxyphenyl)-4-[1-(3,5-dimethylpyridin-2-yl)-cyclohex-1-en-4-yl]piperazine]",1.84 nM,
"COc1ccccc1N1CCN([C@H]2CC[C@H](c3ccccc3)CC2)CC1 [Example 1 (trans), trans-1-(2-methoxyphenyl)-4-(1-phenylcyclohex-4-yl)piperazine]",0.6 nM,0.794 nM
